Measured values reported in the supplement of paper PMC7695840.
Several values for one entry are separate records, joined by “and”; a condition that tells them apart may be missing. Equal entries are not always repeated. Structures can show the parent of a compound that is named as a salt.

Tests used:
[1] = test system: Staphylococcus aureus MW2 (mecA+); assay: IC50 (growth, competition assay); conditions: cefoxitin: subinhibitory
In short: (§1)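 Signals from DsRed (540/590) and GFP (485/520) were scaled on every plate between single-strain control medians, with No Treatment then set to 0.5. The cells were a 1:1 mix of pre-induced fluorescent S. aureus MW2 strains with and without the resistance gene, grown unshaken for 20 h at 37 °C and 90% humidity in LB in 1536-well plates under a subinhibitory drug dose set each day. Each strain's IC50 was defined as the dose halving the No Treatment signal, or the maximal signal.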

[2] = test system: Staphylococcus aureus MW2 delta-mecA (mecA-); assay: IC50 (growth, competition assay); conditions: cefoxitin: subinhibitory
In short: as §1

Row | Compound | IC50 ([1]; fluorescent label: DsRed) [µM] | IC50 ([1]; fluorescent label: GFP) | IC50 ([2]; fluorescent label: DsRed) [µM] | IC50 ([2]; fluorescent label: GFP) [µM]
1 | Cc1cc(Nc2cc(N3CCN(C)CC3)nc(/C=C/c3ccccc3)n2)n[nH]1 [ENMD-2076] | 47.6 | 55.2 µM | 6.48 | 4.72
2 | Cc1c(-c2ccc(O)cc2)n(Cc2ccc(OCCN3CCCCCC3)cc2)c2ccc(O)cc12 [Bazedoxifene HCl] | 56.8 | 56.6 µM | 13.5 | 28.3
3 | CO/N=C(\C(=O)N[C@@H]1C(=O)N2C(C(=O)O)=C(CSc3nnnn3C)CS[C@H]12)c1csc(N)n1 [CEFMAX] | < 9.85 | < 9.85 µM | < 9.85 | < 9.85
4 | COc1cc2ncnc(Nc3ccc(Oc4ccccc4)cc3)c2cc1OC [Src I1] | 29 | 30.7 µM | 30.6 | 25.3
5 | CN1CCN(CCCN2c3ccccc3Sc3ccc(Cl)cc32)CC1 [COMPAZINE] | 139 | 56.7 µM | 34 | 56.6
6 | C=C1c2cccc(O)c2C(=O)C2=C(O)[C@]3(O)C(=O)C(C(N)=O)=C(O)[C@@H](N(C)C)[C@@H]3[C@@H](O)[C@H]12 [RONDOMYCIN] | < 9.85 | < 9.85 µM | < 9.85 | < 9.85
7 | CC(C)c1c(O)ccc2c1CC[C@H]1[C@@](C)(CO)CCC[C@]21C [19-HYDROXYTOTAROL] | 77.4 | 111 µM | 107 | 65.8
8 | OC1(c2ccc(Cl)c(C(F)(F)F)c2)CCN(CCCC(c2ccc(F)cc2)c2ccc(F)cc2)CC1 [SEMAP] | 29.7 | 27.3 µM | < 9.85 | < 9.85
9 | Cc1ccc(C(=O)Nc2ccc(CN3CCN(C)CC3)c(C(F)(F)F)c2)cc1C#Cc1cnc2cccnn12 | 21.8 | 27.4 µM | 8.28 | 4.54
10 | Cc1cc(CC(C)CC(C)(C)C)n(O)c(=O)c1 (stereo not given) [OCTOPIROX] | 120 | 106 µM | 89.5 | 70
11 | N[C@@H](Cc1cc(I)c(Oc2ccc(O)c(I)c2)c(I)c1)C(=O)O [CYTOMEL] | 60.3 | 49.1 µM | 14 | < 9.85
12 | CO[C@H]1/C=C/O[C@@]2(C)Oc3c(C)c(O)c4c(O)c(c5c(nc6cc(C)ccn65)c4c3C2=O)NC(=O)/C(C)=C\C=C\[C@H](C)[C@H](O)[C@@H](C)[C@@H](O)[C@@H](C)[C@H](OC(C)=O)[C@@H]1C [XIFAXAN] | < 9.85 | < 9.85 µM | < 9.85 | < 9.85
13 | CC1(C)S[C@@H]2[C@H](NC(=O)[C@H](N)c3ccccc3)C(=O)N2[C@H]1C(=O)O [Ampicillin sodium] | < 9.85 | 15.1 µM | < 9.85 | < 9.85
14 | Cc1nnc(SCC2=C(C(=O)O)N3C(=O)[C@@H](NC(=O)Cn4cnnn4)[C@H]3SC2)s1 [Cefazolin sodium] | < 9.85 | < 9.85 µM | < 9.85 | < 9.85
15 | C=CCc1ccc(O)c(-c2cc(CC=C)ccc2O)c1 [Magnolol] | 40.1 | 49.9 µM | 12 | 8.24
16 | CN1CCN(C2Cc3ccccc3Sc3ccc(Cl)cc32)CC1 (stereo not given) [(?)-Octoclothepin maleate] | 73.8 | 61.8 µM | < 9.85 | 29.3
17 | CCCCCC(=O)Cc1cc(O)cc(O)c1C(=O)Oc1cc(CC(=O)CCCCC)c(C(=O)O)c(OC)c1 [ARTHONIOIC ACID] | 24 | 56 µM | 45.5 | 49.7
18 | O=C(Nc1ccc(C(=O)O)c(O)c1)c1ccccc1 [THERAPAS] | 29.8 | 29.3 µM | 17.6 | 11.8
19 | C[C@@H](Oc1cc(-c2cnn(C3CCNCC3)c2)cnc1N)c1c(Cl)ccc(F)c1Cl | 101 | 108 µM | 20.9 | 17
20 | N#Cc1c(Cl)c(Cl)c(Cl)c(C#N)c1Cl [CHLOROTHALONIL] | < 9.85 | < 9.85 µM | < 9.85 | < 9.85
21 | CCC(=O)Nc1cccc(Oc2nc(Nc3ccc(N4CCN(C)CC4)cc3OC)ncc2Cl)c1 [WZ4003] | > 150 | > 150 µM | > 150 | > 150
22 | CN(N=O)C(=O)N[C@@H]1[C@@H](O)[C@H](O)[C@@H](CO)O[C@@H]1O [ZANOSAR] | < 9.85 | < 9.85 µM | < 9.85 | < 9.85
23 | O=C1NC(=O)/C(=C/c2ccc(-c3ccc(F)cc3O)o2)S1 | < 9.85 | < 9.85 µM and 13.8 µM | < 9.85 | < 9.85
24 | CCCCCCCCNC(C)C(O)c1ccc(SC(C)C)cc1 (stereo not given) [SULOCTIDIL] | 29.6 | 27.5 µM | 17.3 | 24.4
25 | O=C1NC(c2cccc([N+](=O)[O-])c2)=CCN1c1ccccc1O [Icilin] | 63.3 | 54.4 µM | 19.3 | 25.5
26 | C=C(CC)C(=O)c1ccc(OCC(=O)O)c(Cl)c1Cl [EDECRIN] | 34.1 | 36.7 µM | < 9.85 | < 9.85
27 | COC1=C2C[C@@H](C)C[C@H](OC)[C@H](O)[C@@H](C)/C=C(\C)[C@H](OC(N)=O)[C@@H](OC)/C=C\C=C(/C)C(=O)NC(=CC1=O)C2=O [Geldanamycin] | < 9.85 | < 9.85 µM | < 9.85 | < 9.85
28 | O=C1Nc2ccc(I)cc2/C1=C/c1cc(Br)c(O)c(Br)c1 [GW5074] | < 9.85 | < 9.85 µM | < 9.85 | < 9.85
29 | CCn1cc(C(=O)O)c(=O)c2cc(F)c(N3CCN(C)CC3)cc21 [Pefloxacin Mesylate Dihydrate] | < 9.85 | < 9.85 µM | < 9.85 | < 9.85
30 | CCn1cc(C(=O)O)c(=O)c2cnc(N3CCNCC3)nc21 [PIPEDAC] | 38 | 60.4 µM | 64.9 | 36.5
